Legend:
MMP-13 = assay: PTH-induced MMP-13 expression in UMR 106-01 osteoblast cells (real time quantitative RT-PCR); type: cell-based, Rat
Procedure: Parathyroid hormone (rat PTH 1-34) was purchased from Sigma. UMR 106-01 cells were cultured in Eagle's minimal essential medium (EMEM) supplemented with 25 mM Hepes pH 7.4, 1% nonessential amino acids, 100 units/rill penicillin, 100 μg/ml streptomycin. 5% fetal bovine serum. Real Time Quantitative RT-PCR was conducted according to the following method: UMR 106-01 cells were seeded in 12-well plates and cultured for 2-3 days in cell culture media. When cells were confluent, cell culture media was exchanged with 1% fetal bovine serum for overnight for cell starvation. Cells were pre-incubated with triclosan or a triclosan-containing dentifrice (see. e.g., U.S. Pat. Nos. 4,894,220, 5,032,386, and related patents) for 15 min and then incubated with PTH (10^−8 M) for 4 hours.
Total RNA was isolated from UMR 106-01 cells stimulated with or without PTH with TRIzol reagent. Total RNA (0.1 μg) was reverse-transcribed to cDNA using the Invitrogen SUPERSCRIPT kit according to the manufacturer's instructions. All cDNAs were amplified by adding 2.5 μl of cDNA to the PCR mixture (22.5 μl) containing each primer (0.2 μM) and 12.5 μl of the Platinum SYBR Green qPCR SuperMix UDG (Invitrogen). The reactions were preincubated at 50° C. for 2 minutes to decontaminate dU-containing DNA by UDG, then at 95° C. for 2 minutes to inactivate UDG and activate Taq. The PCR program continued 49 cycles of denaturation at 95° C. for 15 seconds, annealing and elongation of the primers at 60° C. for 30 seconds. Relative quantification of gene expression was determined by using the 2-delta delta CT method where fold changes in gene expression are relative to control samples. All samples were normalized to β-actin.
All results were expressed as means±standard error (S.E.) of triplicate measurements with all experiments being repeated at least three times. Statistical analyses were carried out using the Student's t test.

MMP-9 = assay: TNFα-induced MMP-9 production of U937 monocytes (ELISA of conditioned media); type: cell-based, Human; conditions: for MMP-9 production, Average: U937 cells, 24 hours, conditioned media ELISA
Procedure: U937 cells and RPMI 1640 culture medium were obtained from ATCC. Human MMP-9 ELISA Kit (QUANTIKINE) was obtained from R&D Systems. Fetal Bovine Serum (FBS) was obtained from VWR, and the penicillin-streptomycin solution and Tumor Necrosis Factor α (TNFα) were obtained from Sigma.
Human leukemia U937 monocyte lymphoma cells were cultured in RPMI 1640 medium supplemented with 10% FBS and 1% Penicillin-Streptomycin solution. Cells were incubated at 37° C. in a humidified atmosphere containing 5% CO2 and 95% air. Before treatment, cells were transferred into RPMI containing 1% FBS for overnight. Cells were plated on a 48 well plate. Cell culture medium included either TNFα (250 ng/mL), Triclosan(1 ppm), or both agents together or no agent (control). Cells were incubated after treatment for 24 hours. Conditioned media were collected and store at −80° C. until analysis. Samples of conditioned media were subjected to enzyme-linked immunosorbent assays (ELISA) for MMP-9, according to commercial ELISA protocol (FIG. 1).

[1] = with PEG 600, weight ratio of 25 triclosan:1 PEG 600, versus absence of polyethylene glycol; cited from earlier work

| Compound | MMP-13 expression, Average (fold change relative to control, normalized to β-actin) (MMP-13; Triclosan 1 ppm + PTH 10^−8 M, 15 min pre-incubation, 4 hours) | MMP-13 expression, Average (fold change relative to control, normalized to β-actin) (MMP-13; Triclosan 1 ppm, without PTH) | MMP-13 expression, Average (fold change relative to control, normalized to β-actin) (MMP-13; Triclosan 4 ppm + PTH 10^−8 M, 15 min pre-incubation, 4 hours) | MMP-13 expression, Average (fold change relative to control, normalized to β-actin) (MMP-13; Triclosan 4 ppm, without PTH) | MMP-13 expression, Average (fold change relative to control, normalized to β-actin) (MMP-13; Triclosan 10 ppm + PTH 10^−8 M, 15 min pre-incubation, 4 hours) | MMP-13 expression, Average (fold change relative to control, normalized to β-actin) (MMP-13; Triclosan 10 ppm, without PTH) | effect on MMP-13 expression in PTH stimulated UMR cells (MMP-13; Triclosan at 10 ppm, 4 ppm and 1 ppm) | effect on MMP-9 level in TNFα stimulated U937 cells (MMP-9; Triclosan at 1 ppm) | MMP-9 production, Average (MMP-9; TNFα 250 ng/mL + Triclosan 1 ppm) [ng/mL] | factor by which antibacterial activity is reduced [1] | MMP-9 production, Average (MMP-9; TNFα 250 ng/mL alone) [ng/mL] |
| --- | --- | --- | --- | --- | --- | --- | --- | --- | --- | --- | --- |
| Oc1cc(Cl)ccc1Oc1ccc(Cl)cc1Cl [Triclosan, 2,4,4′-trichloro-2′-hydroxydiphenyl ether] | 35.38 | 0.4166 | 10.56 | 1.424 | 3.012 | 1.518 | significantly reduced | significantly reduced | 0.155 | 10-20 |  |
| TNFα |  |  |  |  |  |  |  |  |  |  | 0.275 |

Reference: patent publication US8637266B2, “Anti bone-loss and anti attachment-loss effects of an oral composition” (Colgate-Palmolive Company, priority 2009, dated 2014)
